This note sets out measurements from paper PMC6923384, “Insights into the κ/ι-carrageenan metabolism pathway of some marine Pseudoalteromonas species” (Communications Biology, 2019).

One experiment concerns the target T1, GH167 (Pseudoalteromonas fuliginea, UniProt A0ABQ6RII1).
T1 construct: gene EU509_08810; residues 21-808, signal peptide removed, pET28a His-tag, E. coli BL21(DE3) Star
In words: thin layer chromatography of products. Type of experiment: biochemical. The following applies: hydrolysis of β-1,4-linkage to κ-NC2 and likely β-NC2.

In another experiment the target is T2, BovGH167 (Bacteroides ovatus, UniProt A0ABF7PI57).
T2 construct: gene HMPREF1069_02044; residues 26-775, synthetic codon-optimised gene, pET28a His-tag, E. coli BL21(DE3) Star
T2 sequence (A0ABF7PI57 26-775): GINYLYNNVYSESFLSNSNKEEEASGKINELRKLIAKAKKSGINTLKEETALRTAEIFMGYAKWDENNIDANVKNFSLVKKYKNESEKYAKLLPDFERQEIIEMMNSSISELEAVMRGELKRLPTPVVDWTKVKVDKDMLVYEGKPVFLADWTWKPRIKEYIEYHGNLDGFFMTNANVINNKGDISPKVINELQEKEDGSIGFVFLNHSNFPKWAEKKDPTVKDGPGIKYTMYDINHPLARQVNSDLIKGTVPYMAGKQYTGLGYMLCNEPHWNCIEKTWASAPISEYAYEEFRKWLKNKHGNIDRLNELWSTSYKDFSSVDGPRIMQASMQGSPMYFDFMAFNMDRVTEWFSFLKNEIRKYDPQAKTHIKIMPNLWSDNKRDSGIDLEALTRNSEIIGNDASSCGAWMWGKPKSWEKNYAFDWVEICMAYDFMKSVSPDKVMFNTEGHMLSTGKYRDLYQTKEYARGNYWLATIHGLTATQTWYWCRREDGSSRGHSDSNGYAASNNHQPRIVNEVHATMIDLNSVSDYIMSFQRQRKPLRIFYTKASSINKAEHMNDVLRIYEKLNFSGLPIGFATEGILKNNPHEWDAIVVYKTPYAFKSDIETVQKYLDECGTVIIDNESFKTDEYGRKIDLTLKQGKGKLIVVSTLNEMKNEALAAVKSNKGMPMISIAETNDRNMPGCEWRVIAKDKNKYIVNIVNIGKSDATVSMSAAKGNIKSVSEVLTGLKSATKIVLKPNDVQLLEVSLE
In words: thin layer chromatography of products. The following applies: hydrolysis of β-1,4-linkage to κ-NC2 and likely β-NC2 activity as GH167. The format is biochemical.

For experiment [1], the target named is DauA, 3,6-anhydro-D-galactose dehydrogenase from Pseudoalteromonas fuliginea PS47 (Pseudoalteromonas fuliginea PS47). In words: crystal structure; hanging drop vapor-diffusion at 18 °C; N-terminal His-Tag cleaved with thrombin before crystallization.
For the next experiment, the target named is T3, S1_NC (Pseudoalteromonas fuliginea, UniProt A0ABQ6RIJ3, C84S).
T3 construct: gene EU509_08820; residues 34-507, signal peptide removed, pET28a N-terminal His-tag cut by thrombin for crystals, E. coli BL21(DE3) Star
T3 sequence (A0ABQ6RIJ3 entry or part of it C84S): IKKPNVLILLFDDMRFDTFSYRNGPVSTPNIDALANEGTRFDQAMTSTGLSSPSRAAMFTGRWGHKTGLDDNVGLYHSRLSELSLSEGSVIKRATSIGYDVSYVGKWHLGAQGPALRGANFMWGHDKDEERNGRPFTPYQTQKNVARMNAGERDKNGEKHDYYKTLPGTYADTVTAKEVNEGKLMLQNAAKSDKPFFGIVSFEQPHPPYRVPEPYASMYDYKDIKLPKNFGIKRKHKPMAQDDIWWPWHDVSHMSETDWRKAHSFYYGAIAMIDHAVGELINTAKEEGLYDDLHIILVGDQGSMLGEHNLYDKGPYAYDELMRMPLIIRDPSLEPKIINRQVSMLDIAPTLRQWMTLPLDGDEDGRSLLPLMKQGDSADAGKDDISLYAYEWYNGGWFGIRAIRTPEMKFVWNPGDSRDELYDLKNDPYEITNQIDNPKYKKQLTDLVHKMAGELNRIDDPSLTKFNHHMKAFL
In words: crystal structure of the complex. The format is binding. The following applies: crystal soaking; only the non-reducing end disaccharide (ι-NC2) modelled; active site.

A further experiment deals with T4, S1_19A (Pseudoalteromonas fuliginea, UniProt A0ABQ6RIU8).
T4 construct: gene EU509_08825; pET28a His-tag, E. coli BL21(DE3) Star with formylglycine generating enzyme; cloning described previously
T4 sequence (A0ABQ6RIU8 entry or part of it): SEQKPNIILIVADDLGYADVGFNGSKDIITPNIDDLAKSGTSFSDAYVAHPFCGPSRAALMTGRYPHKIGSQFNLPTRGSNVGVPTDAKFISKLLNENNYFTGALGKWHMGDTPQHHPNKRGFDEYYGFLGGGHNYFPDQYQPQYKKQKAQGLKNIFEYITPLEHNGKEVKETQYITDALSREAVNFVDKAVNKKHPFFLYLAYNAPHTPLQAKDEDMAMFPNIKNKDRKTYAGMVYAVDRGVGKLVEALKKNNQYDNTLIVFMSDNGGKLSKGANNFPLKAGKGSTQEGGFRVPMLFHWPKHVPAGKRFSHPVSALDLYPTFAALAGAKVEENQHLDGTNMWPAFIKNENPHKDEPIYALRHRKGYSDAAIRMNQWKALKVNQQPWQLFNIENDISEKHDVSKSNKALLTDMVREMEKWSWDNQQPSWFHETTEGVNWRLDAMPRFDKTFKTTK
The experiment in a line: product analysis, details in supplement. The format is biochemical. Conditions: removes 4-sulfate from G4S adjacent to the non-reducing end.

A further experiment deals with T5, S1_19B (Pseudoalteromonas fuliginea, UniProt A0ABQ6RIL2, C77S).
T5 construct: gene EU509_08890; residues 28-473, signal peptide removed, pET28a N-terminal His-tag (cut by thrombin for crystals), E. coli BL21(DE3) Star with formylglycine generating enzyme; dimer
T5 sequence (A0ABQ6RIL2 entry or part of it C77S): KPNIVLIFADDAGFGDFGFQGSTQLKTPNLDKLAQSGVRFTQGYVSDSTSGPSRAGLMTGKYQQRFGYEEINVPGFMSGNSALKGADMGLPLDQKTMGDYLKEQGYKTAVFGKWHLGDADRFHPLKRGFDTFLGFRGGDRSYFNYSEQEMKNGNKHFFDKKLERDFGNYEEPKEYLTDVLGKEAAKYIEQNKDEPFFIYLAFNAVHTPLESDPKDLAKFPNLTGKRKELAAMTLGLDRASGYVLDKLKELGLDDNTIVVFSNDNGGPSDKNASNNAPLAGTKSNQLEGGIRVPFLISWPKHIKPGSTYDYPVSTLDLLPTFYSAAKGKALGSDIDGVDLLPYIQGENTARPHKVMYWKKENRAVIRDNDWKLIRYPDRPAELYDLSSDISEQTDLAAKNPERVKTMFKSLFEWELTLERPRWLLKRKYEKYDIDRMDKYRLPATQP
In words: crystal structure of the complex. The format is binding. The following applies: co-crystallization; inactive (non-productive) complex; C77S inferred from methods (mutants in complex with ligands).

In experiment [2] the target is S1_19B, exo-G4S κ-carrageenan sulfatase from Pseudoalteromonas fuliginea PS47 (Pseudoalteromonas fuliginea PS47). The experiment in a line: not stated; in solution; method told only in Supplementary Notes (section 3) and Supplementary Fig. 7b-d.
Experiment [3] shares this target. In words: crystal structure; hanging drop vapor-diffusion at 18 °C; N-terminal His-Tag cleaved with thrombin before crystallization.

T1 sequence (A0ABQ6RII1 entry or part of it): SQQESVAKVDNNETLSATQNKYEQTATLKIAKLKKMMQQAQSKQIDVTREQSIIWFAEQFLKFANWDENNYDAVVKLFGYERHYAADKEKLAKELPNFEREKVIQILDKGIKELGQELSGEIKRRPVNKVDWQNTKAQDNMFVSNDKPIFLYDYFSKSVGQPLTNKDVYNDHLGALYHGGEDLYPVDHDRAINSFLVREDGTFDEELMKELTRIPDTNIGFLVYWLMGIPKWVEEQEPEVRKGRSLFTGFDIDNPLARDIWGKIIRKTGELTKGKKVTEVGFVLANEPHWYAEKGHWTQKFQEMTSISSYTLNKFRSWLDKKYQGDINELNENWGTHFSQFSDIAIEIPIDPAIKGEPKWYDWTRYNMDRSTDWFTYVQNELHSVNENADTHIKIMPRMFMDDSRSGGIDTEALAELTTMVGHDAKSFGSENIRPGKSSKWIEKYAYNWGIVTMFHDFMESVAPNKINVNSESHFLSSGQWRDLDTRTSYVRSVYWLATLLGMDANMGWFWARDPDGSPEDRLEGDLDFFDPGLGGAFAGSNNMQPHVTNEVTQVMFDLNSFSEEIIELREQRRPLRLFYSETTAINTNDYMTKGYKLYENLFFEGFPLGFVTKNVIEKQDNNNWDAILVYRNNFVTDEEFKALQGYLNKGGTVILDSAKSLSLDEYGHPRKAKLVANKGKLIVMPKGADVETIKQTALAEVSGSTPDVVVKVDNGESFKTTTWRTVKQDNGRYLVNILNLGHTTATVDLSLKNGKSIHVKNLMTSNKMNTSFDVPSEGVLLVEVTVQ

With `O=S(=O)(O)O[C@@H]1[C@H](O[C@H]2O[C@@H]3CO[C@H]([C@H]2O)[C@H]3O[C@@H]2O[C@H](CO)[C@H](O)[C@H](O[C@H]3O[C@@H]4CO[C@@H]([C@H]4O)[C@H]3O)[C@H]2O)[C@@H](O)C(O)O[C@@H]1CO` (stereo partly drawn) [β/κ-NC4, β/κ-neocarratetraose], the “thin layer chromatography of products” value at GH167 is reported as “Using TLC we found activity on hybrid β/κ-neocarratetraose (β/κ-NC4)”; on BovGH167 it was “has the same enzymatic activity as GH167 (Fig. 5a)”.

On to “DauA, 3,6-anhydro-D-galactose dehydrogenase from Pseudoalteromonas fuliginea PS47 (enzyme)”, for which the stoichiometry N (commonly the number of molecules, sites or subunits per partner or assembly) in experiment [1] stood at 2.

In the case of `O=S(=O)(O)O[C@@H]1[C@H](O[C@H]2O[C@@H]3CO[C@@H]([C@H]3O)[C@H]2OS(=O)(=O)O)[C@@H](O)[C@H](O[C@@H]2[C@@H]3OC[C@H]2O[C@H](O[C@H]2[C@@H](OS(=O)(=O)O)[C@@H](CO)OC(O)[C@@H]2O)[C@@H]3OS(=O)(=O)O)O[C@@H]1CO` (some centres unmarked) [ι-NC4, ι-neocarratetraose], the “crystal structure of the complex” value on S1_NC is listed as “structural analysis of the S1_NC C84S mutant in complex with ι-NC4”; on S1_19B, “the structure of this enzyme in complex with ι-NC4 revealed the ability of the enzyme to bind”. In addition, at S1_19A, the “product analysis, details in supplement” value is reported as “can remove the 4-sulfate from the G4S residue that is adjacent to the non-reducing end”.

Turning to “S1_19B, exo-G4S κ-carrageenan sulfatase from Pseudoalteromonas fuliginea PS47 (enzyme)”, the stoichiometry N in experiment [2] and in experiment [3] was 2 each time.
